Test results from US6462052B1, “Synergistic fungicide and/or bactericide composition” (Rhone-Poulenc Agro, priority 1998, dated 2002).

Test system: Venturia inaequalis
Assay: Combination of pyrimethanil and dodine in controlling apple scab: curative treatment of inoculated apple plants
Format: in vivo
Conditions: for Practical efficacy: treated 3 days after inoculation, scored one month after inoculation; for Protection (in words): used alone
Experimental: Example: Combination of pyrimethanil and dodine in controlling apple scab
The fungicides evaluated are the following:
The fungicidal compositions evaluated are the following:
Apple plants (var. Melrose Golden) at the 5-6-leaf stage are inoculated with an aqueous suspension containing 150 000 spores of Venturia inaequalis/ml of inoculum. The plants are then placed in a climatic cell at 16-18° C., 100% RH (relative humidity) for 3 days. They are then treated with the fungicidal compositions at the doses cited above (12 repeats/dose) in a plant protection mixture at 500 l/ha and are again placed under the conditions described above. One month after the inoculation, scores are awarded. This consists in estimating the diseased leaf surface area in the two leaf stages sensitive to the disease and, by comparing with an untreated contaminated control, in defining the percentage efficacy according to the following formula:
% practical efficacy=100×(% contamination Control−% contamination Trial)/% contamination Control
The theoretical efficacy according to the Colby formula is calculated based on the following formula:
% theoretical efficacy A+B=% practical eff. A+% practical eff. B−(% practical eff. A×% practical eff. B/100)

Compound | Practical efficacy (pyrimethanil 50 g/ha alone, apple plants var. Melrose Golden) [%] | Practical efficacy (pyrimethanil 100 g/ha alone) [%] | Practical efficacy (pyrimethanil 200 g/ha alone) [%] | Protection (in words) | Practical efficacy (dodine 150 g/ha alone) [%] | Practical efficacy (dodine 300 g/ha alone) [%] | Practical efficacy (dodine 600 g/ha alone) [%]
Cc1cc(C)nc(Nc2ccccc2)n1 [pyrimethanil] | 65.4 | 65.4 | 61.5 | partial protection |  |  | 
dodecylguanidine monoacetate [dodine] |  |  |  | partial protection | 30.8 | 76.9 | 75
